Results taken from patent US8273389B2, “Compositions comprising cinnamon oil (and/or its component cinnamaldehyde) and diallyl disulfide, their formulations, and methods of use” (Valent BioSciences Corporation, priority 2008, dated 2012).

Test system: Meloidogyne incognita (Root-knot nematode)
Assay: Greenhouse pot test, root galling of cucumber seedlings by root-knot nematode
Type: in vivo
Conditions: 25 ml soil drench, 800 J2 per pot, rated after 12-15 days, 0 = no galls, 9 = heavy galling; for Average Gall Rating (0-9): Example 2, 300 ppm AI (combined total for mixtures), nematode control 9; for Gall Rating (0-9): Example 3, 300 ppm AI (combined total for mixture), nematode control 8.25
Protocol: Tests are conducted in 2″ pots containing 125 grams non-pasteurized 2:1 sand soil mix containing 2 cucumber seedlings at the 1st true leaf stage (var. Straight Eight). Each treatment consists of 4 replicate pots. Application of test materials is carried out by drenching each pot with 25 milliliters of an aqueous dispersion of the formulation being tested. Several hours after the test materials are applied, 800, second stage juveniles (J2) of freshly hatched Meloidogyne incognita (Root-knot nematode), are applied to each pot with the exception of the untreated control. The pots are maintained for 12-15 days at standard greenhouse temperature and lighting conditions and watered as needed for the duration of the test. At harvest, the soil is removed from the roots by rinsing the roots in water. The roots are then rated for galling on a scale from 0-9 where 0 represents no galls and 9 represents heavy galling.
Tests are conducted in 2″ pots, as explained in Example 2 above.

Row | Compound | Average Gall Rating (0-9) | Gall Rating (0-9)
1 | C=CCSSCC=C [Allyl disulfide (BAB-0294-75), diallyl disulfide] | 5 | 3.25
2 | O=CC=Cc1ccccc1 [Cinnamaldehyde, cinnamaldehyde] | 7.75 | 9
